Read-outs that look alike come from different tables or passages of the source. Blank lines part the entries; values can stand above or below the compound they belong to.
What was measured:
[1] = target: RhoC (Homo sapiens, UniProt P08134); assay: [3H]GDP displacement of 6-TGDP from .NO2-treated 6-TGDP-loaded GTPase with/without DTT (FIG. 13B); type: binding; design: made in house; host or cells: E. coli
Experimental: (§1) FIG. 13. Guanine nucleotide exchange of small GTPases with 6-TGDP. (A) To monitor 6-TGDP-mediated GTPase GDP dissociation, [^3H]GDP-loaded GTPase (1 μM) was incubated with 6-TGDP (0-2000 μM) for 1 h. (B) To monitor GTPase 6-TGDP dissociation by GDP (0-2000 μM) in the presence and absence of dithiothreitol (DTT), 6-TGDP-loaded GTPase (˜1 μM) was treated with .NO2 (˜3 μM) under anaerobic conditions and was incubated with various concentrations of [^3H]GDP (0-2000 μM) in the presence and absence of DTT (10 mM) for 1 h. For all assays, aliquots were withdrawn and spotted onto nitrocellulose filters. The filters were then washed three times with an assay buffer, and radioactivity was determined using a Beckman-Coulter scintillation counter. The resultant radioactivity (dpm) values associated with GTPase-bound [^3H]GDP were converted into the fraction of mol nucleotide per mol total GTPase. The data presented represent mean and standard error values from triplicate measurements. The apparent dissociation constants (appKD values) of GTPase 6-TGDP association ([^3H]GDP dissociation, A); and 6-TGDP dissociation ([3H]GDP association, B) were obtained by fitting the data to a simple dissociation and association, respectively. (A) The ^appKD values of Ras, RhoC, RhoA and Rac1 for 6-TGDP, are, respectively, 2300, 230, 224, and 245 μM [6-TGDP]. (B) The appKD values of RhoC with and without DTT are, respectively, 560, and 1000 μM [[^3H]GDP], whereas the ^appKD values of Ras with and without DTT are 530, and 520 μM [[^3H]GDP], respectively. The standard errors of each ^appKD value are less than 10% of their given values, and regression values associated with the fit were r^2>0.9560.
The ^appKD [3H]GDP was converted into ^trueKD [3H]GDP by using a compensation equation, ^trueKD [3H]GDP=^appKD [3H]GDP/(1+[6-TGDP]/^trueKD GDP) (Segel, I. H. (1993) Enzyme kinetics, A Wiley-Interscience publication, New York) (see above)). The calculated ^trueKD [3H]GDP values of RhoC in the presence and absence of DTT were estimated to be 516 μM and 923 μM, respectively. […] Treatment with DTT, a reducing agent, disrupts the disulfide bond between RhoC and 6-TGDP, liberating 6-TGDP from RhoC, and thereby permitting [^3H]GDP to bind to RhoC.

[2] = target: Rac1 (Homo sapiens, UniProt P63000); assay: Guanine nucleotide exchange of [3H]GDP-loaded GTPase with 6-TGDP (FIG. 13A); type: binding; design: made in house; host or cells: E. coli
Experimental: as §1
A kinetic assay method using radiolabeled GDP ([^3H]GDP) was established. The apparent dissociation constants (^appKD 6-TGDP) of Rho GTPases (including RhoA, Cdc42, and Rac1/2/3) and Ras with 6-TGDP were determined (FIG. 13). The results of this preliminary kinetic study provided strong support for the mechanism proposed for the role of 6-TGNP in RhoC inactivation (FIG. 7).
The true dissociation constant (^trueKD 6-TGDP) of Ras, RhoC, RhoA and Rac1 for 6-TGDP was then calculated to be ˜20.7 pM, 212 μM, 208 μM, and 158 μM [6-TGDP] by using a compensation equation, ^trueKD 6-TGDP=^appKD 6-TGDP/(1+[GDP]/^trueKD GDP) (95), in conjunction with the values given [(^appKD 6-TGDP of Ras, RhoC, RhoA, and Rac1=2300, 230, 224, and 245 μM (FIG. 13) and ^trueKD GDP=9 pM, 12 μM, 13 μM and 1.8 μM, respectively. The ^trueKD GDP of Ras, RhoA and Rac1 was determined previously (Lenzen et al. Biochemistry 37, 7420-7430 (1998); Heo et al. Biochemistry 44, 6573-6585 (2005)) and the ^trueKD GDP of RhoC was further determined. Example: ^trueKD 6-TGDP for Ras=2300 μM/(1+1 μM GDP/[…])=[…] [6-TGDP]].

[3] = system: HME-C20S RhoC cells; assay: Matrigel invasion (cell motility) assay; type: cell-based, human; conditions: FIG. 14A
Description: (§2) FIG. 14. Determination of cell invasiveness in the presence and absence of thiopurines and/or redox agents. […] Western blot analysis representing the total expression of RhoC in these cells also is shown. (B) Experimental procedures for the determination of the time-dependent motility of cells using the QCM Cell Invasion Assay kit in the presence and absence of 6-TG and DETA/NO are described elsewhere herein.
(§3) The top chamber of a Transwell filter (6.5 mm with 8 μm pores, Costar; Corning, N.Y.) was coated with a 10 μL aliquot of 10 mg/mL Matrigel, and the lower chamber of the Transwell was filled with either serum-free or serum-containing media. Sample cells were prepared to resuspend cells in a serum-free medium with 0.1% BSA at a concentration of 4×10^5 cells/mL. […] The Transwell filters were fixed with methanol, stained with haematoxylin and eosin, and cells in the serum-containing samples were counted. The number of cells that had invaded the serum-free, medium-containing lower chambers was used as a control background.

[4] = system: SUM149 cells; assay: Matrigel invasion (cell motility) assay; type: cell-based, human; conditions: FIG. 14A
Description: as §2, §3

Chain of RhoC (P08134 whole entry): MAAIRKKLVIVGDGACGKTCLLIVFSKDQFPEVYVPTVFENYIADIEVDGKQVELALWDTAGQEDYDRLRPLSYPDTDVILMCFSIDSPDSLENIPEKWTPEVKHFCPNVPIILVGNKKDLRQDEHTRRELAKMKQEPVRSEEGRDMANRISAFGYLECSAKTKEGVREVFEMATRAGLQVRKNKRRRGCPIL

SMILES: Nc1nc2c(ncn2[C@@H]2O[C@H](COP(=O)(O)OP(=O)(O)O)[C@@H](O)[C@H]2O)c(=O)[nH]1 [GDP]
- Kd ([1]; absence of DTT, calculated by compensation equation, read-out: trueKD [3H]GDP): 923 µM
- Kd ([1]; presence of DTT, calculated by compensation equation, read-out: trueKD [3H]GDP): 516 µM
- Kd ([1]; with DTT 10 mM, 6-TGDP-loaded GTPase ~1 μM treated with .NO2 ~3 μM, anaerobic, 1 h, read-out: appKD for [3H]GDP (6-TGDP dissociation)): 560 µM
- Kd ([1]; without DTT, 6-TGDP-loaded GTPase ~1 μM treated with .NO2 ~3 μM, anaerobic, 1 h, read-out: appKD for [3H]GDP (6-TGDP dissociation)): 1000 µM

- Kd ([2]; [3H]GDP-loaded GTPase 1 μM, 6-TGDP 0-2000 μM, 1 h, FIG. 13A, read-out: appKD for 6-TGDP): 245 µM
- Kd ([2]; calculated by compensation equation from appKD 6-TGDP and trueKD GDP, read-out: trueKD 6-TGDP): 158 µM
SMILES: Nc1nc2c(ncn2[C@@H]2O[C@H](COP(=O)(O)OP(=O)(O)O)[C@@H](O)[C@H]2O)c(=S)[nH]1 [6-TGDP, 6-thioguanosine diphosphate]

SMILES: Nc1nc2nc[nH]c2c(=S)[nH]1 [6-TG, 6-thioguanine]
- effect on motility compared with SUM149 and HME-RhoC cells ([3]; 6-TG alone, three days): insignificant
- effect on C20S RhoC activity and invasive cell motility ([3]; 6-TG with a NO donor, compared with either alone): lack of a significant effect
- cell motility ([4]; 6-TG 1 μM alone, three or more consecutive days): gradual but significant diminution of cell motility
- invasive cell motility ([4]; 6-TG 1 μM with DETA/NO (or GSNO) 10 μM, three days): complete termination of the invasive cell motility

— patent US8729047B2, “Compositions for inhibiting redox-sensitive GTPases” (Board of Regents, The University of Texas System, priority 2010, dated 2014)
